Activity calls are given as the source filed them. No cut-off for these calls is given here.
Experiments:
Huh-7 [1] = assay: Antitumor activity against human Huh-7 cells xenografted in BALB/c nude mouse assessed as tumor growth inhibition once daily at 30 mg/kg, po for 24 days relative to control; format: functional; design: scale not given: the % may be the effect or the level left; details: time 24 day
[2] = Cmax in Sprague-Dawley rat measured at 2 mg/kg, iv for 0.083 to 24 hrs by LC-MS/MS analysis; format: ADME, organism-based; design: time upper 24 hrs, time lower 0.083 hrs, dose 2 mg/kg, route iv; details: in vivo
[3] = AUC(0 to t) in Sprague-Dawley rat measured at 60 mg/kg, po for 0.083 to 24 hrs by LC-MS/MS analysis; format: ADME, organism-based; design: time upper 24 hrs, time lower 0.083 hrs, dose 60 mg/kg, route po; details: in vivo
[4] = Tmax in Sprague-Dawley rat measured at 30 mg/kg, po for 0.083 to 24 hrs by LC-MS/MS analysis; format: ADME, organism-based; details: in vivo, time 0.083-24 hrs
[5] = MRT (0 to t) in Sprague-Dawley rat measured at 2 mg/kg, iv for 0.083 to 24 hrs by LC-MS/MS analysis; format: ADME, organism-based; details: in vivo, time 0.083-24 hrs
[6] = Volume of distribution at steady state in Sprague-Dawley rat measured at 2 mg/kg, iv for 0.083 to 24 hrs by LC-MS/MS analysis; format: ADME, organism-based; details: in vivo, time 0.083-24 hrs, read-out: Vdss
[7] = MRT (0 to infinity) in Sprague-Dawley rat measured at 10 mg/kg, po for 0.083 to 24 hrs by LC-MS/MS analysis; format: ADME, organism-based; details: in vivo, time 0.083-24 hrs
[8] = AUC(0 to t) in Sprague-Dawley rat measured at 30 mg/kg, po for 0.083 to 24 hrs by LC-MS/MS analysis; format: ADME, organism-based; design: time 0.083-24 hrs, dose 30 mg/kg, route po; details: in vivo
Huh-7 [9] = assay: Antiproliferative activity against human Huh-7 cells incubated for 72 hrs by Cell counting kit 8 method; format: functional, cell-based; details: Huh-7, 72 h
[10] = Antiproliferative activity against human RBE cells incubated for 72 hrs by Cell counting kit 8 method; format: functional, cell-based
[11] = MRT (0 to infinity) in Sprague-Dawley rat measured at 2 mg/kg, iv for 0.083 to 24 hrs by LC-MS/MS analysis; format: ADME, organism-based; details: in vivo, time 0.083-24 hrs
[12] = AUC (0 to infinity) in Sprague-Dawley rat measured at 2 mg/kg, iv for 0.083 to 24 hrs by LC-MS/MS analysis; format: ADME, organism-based; design: time lower 0.083 hrs, dose 2 mg/kg, time upper 24 hrs, route iv; details: in vivo
[13] = Toxicity in […] nude mouse xenografted with NCI-H1581 cells assessed as change in body weight once daily at 15 to 60 mg/kg, po for 24 days relative to control; format: organism-based; details: in vivo, 576 h, dose 15-60 mg/kg, time 24 day
[14] = Tmax in Sprague-Dawley rat measured at 2 mg/kg, iv for 0.083 to 24 hrs by LC-MS/MS analysis; format: ADME, organism-based; details: in vivo, time 0.083-24 hrs
Huh-7 [15] = assay: Antitumor activity against human Huh-7 cells xenografted in BALB/c nude mouse assessed as reduction in tumor growth once daily administered orally for 24 days; format: functional; details: dose 15-60 mg/kg, route po, time 24.0 day
[16] = molecular target: Fibroblast growth factor receptor 1 (Homo sapiens, UniProt P11362); assay: Inhibition of FGFR1 (unknown origin) incubated for 10 mins followed by substrate addition measured after 60 mins by ADP-Glo luminescence assay
[17] = molecular target: Fibroblast growth factor receptor 2 (Homo sapiens, UniProt P21802); assay: Inhibition of FGFR2 (unknown origin) incubated for 10 mins followed by substrate addition measured after 60 mins by ADP-Glo luminescence assay
[18] = molecular target: Fibroblast growth factor receptor 3 (Homo sapiens, UniProt P22607); assay: Inhibition of FGFR3 (unknown origin) incubated for 10 mins followed by substrate addition measured after 60 mins by ADP-Glo luminescence assay
[19] = AUC(0 to infinity) in Sprague-Dawley rat measured at 100 mg/kg, po for 0.083 to 24 hrs by LC-MS/MS analysis; format: ADME, organism-based; design: dose 100 mg/kg, time 0.083-24 hrs, route po; details: in vivo
[20] = AUC(0 to t) in Sprague-Dawley rat measured at 100 mg/kg, po for 0.083 to 24 hrs by LC-MS/MS analysis; format: ADME, organism-based; design: time upper 24 hrs, dose 100 mg/kg, time lower 0.083 hrs, route po; details: in vivo
[21] = AUC(0 to infinity) in Sprague-Dawley rat measured at 60 mg/kg, po for 0.083 to 24 hrs by LC-MS/MS analysis; format: ADME, organism-based; design: time lower 0.083 hrs, dose 60 mg/kg, time upper 24 hrs, route po; details: in vivo
[22] = C0 in Sprague-Dawley rat measured at 2 mg/kg, iv for 0.083 to 24 hrs by LC-MS/MS analysis; format: ADME, organism-based; details: in vivo, time 0.083-24 hrs
[23] = Microsomal stability in human liver microsomes assessed as intrinsic clearance preincubated for 10 mins followed by NADPH addition measured upto 60 mins by LC-MS/MS analysis; format: ADME, Microsome; details: time < 70 min, read-out: CLH
[24] = Half life in Sprague-Dawley rat measured at 10 mg/kg, po for 0.083 to 24 hrs by LC-MS/MS analysis; format: ADME, organism-based; details: in vivo, time 0.083-24 hrs
[25] = AUC(0 to infinity) in Sprague-Dawley rat measured at 30 mg/kg, po for 0.083 to 24 hrs by LC-MS/MS analysis; format: ADME, organism-based; design: time upper 24 hrs, dose 30 mg/kg, time lower 0.083 hrs, route po; details: in vivo
[26] = Half life in Sprague-Dawley rat measured at 30 mg/kg, po for 0.083 to 24 hrs by LC-MS/MS analysis; format: ADME, organism-based; details: in vivo, time 0.083-24 hrs
A549 = assay: Antiproliferative activity against human A549 cells incubated for 72 hrs by Cell counting kit 8 method; format: functional, cell-based; details: A549, 72 h
MV4-11 = assay: Antiproliferative activity against human MV4-11 cells incubated for 72 hrs by Cell counting kit 8 method; format: functional, cell-based; details: MV4-11, 72 h
[27] = Tmax in Sprague-Dawley rat measured at 10 mg/kg, po for 0.083 to 24 hrs by LC-MS/MS analysis; format: ADME, organism-based; details: in vivo, time 0.083-24 hrs
Hep 3B2 = assay: Antiproliferative activity against human Hep3B cells incubated for 72 hrs by Cell counting kit 8 method; format: functional, cell-based
[28] = AUC (0 to infinity) in Sprague-Dawley rat measured at 10 mg/kg, po for 0.083 to 24 hrs by LC-MS/MS analysis; format: ADME, organism-based; design: dose 10 mg/kg, time upper 24 hrs, time lower 0.083 hrs, route po; details: in vivo
SNU-16 = assay: Antiproliferative activity against human SNU-16 cells incubated for 72 hrs by Cell counting kit 8 method; format: functional, cell-based; details: SNU-16, 72 h
MCF7 = assay: Antiproliferative activity against human MCF7 cells incubated for 72 hrs by Cell counting kit 8 method; format: functional, cell-based; details: MCF7, 72 h
[29] = Half life in Sprague-Dawley rat measured at 100 mg/kg, po for 0.083 to 24 hrs by LC-MS/MS analysis; format: ADME, organism-based; details: in vivo, time 0.083-24 hrs
[30] = Clearance in Sprague-Dawley rat measured at 2 mg/kg, iv for 0.083 to 24 hrs by LC-MS/MS analysis; format: ADME, organism-based; details: in vivo, time 0.083-24 hrs
[31] = Tmax in Sprague-Dawley rat measured at 60 mg/kg, po for 0.083 to 24 hrs by LC-MS/MS analysis; format: ADME, organism-based; details: in vivo, time 0.083-24 hrs
[32] = AUC (0 to t) in Sprague-Dawley rat measured at 2 mg/kg, iv for 0.083 to 24 hrs by LC-MS/MS analysis; format: ADME, organism-based; design: dose 2 mg/kg, time upper 24 hrs, time lower 0.083 hrs, route iv; details: in vivo
[33] = MRT (0 to t) in Sprague-Dawley rat measured at 10 mg/kg, po for 0.083 to 24 hrs by LC-MS/MS analysis; format: ADME, organism-based; details: in vivo, time 0.083-24 hrs
Huh-7 [34] = assay: Antitumor activity against human Huh-7 cells xenografted in BALB/c nude mouse assessed as reduction in tumor growth once daily at 60 mg/kg, po for 24 days; format: functional, organism-based; details: time 24.0 day

Chain of Fibroblast growth factor receptor 2 (P21802 whole entry): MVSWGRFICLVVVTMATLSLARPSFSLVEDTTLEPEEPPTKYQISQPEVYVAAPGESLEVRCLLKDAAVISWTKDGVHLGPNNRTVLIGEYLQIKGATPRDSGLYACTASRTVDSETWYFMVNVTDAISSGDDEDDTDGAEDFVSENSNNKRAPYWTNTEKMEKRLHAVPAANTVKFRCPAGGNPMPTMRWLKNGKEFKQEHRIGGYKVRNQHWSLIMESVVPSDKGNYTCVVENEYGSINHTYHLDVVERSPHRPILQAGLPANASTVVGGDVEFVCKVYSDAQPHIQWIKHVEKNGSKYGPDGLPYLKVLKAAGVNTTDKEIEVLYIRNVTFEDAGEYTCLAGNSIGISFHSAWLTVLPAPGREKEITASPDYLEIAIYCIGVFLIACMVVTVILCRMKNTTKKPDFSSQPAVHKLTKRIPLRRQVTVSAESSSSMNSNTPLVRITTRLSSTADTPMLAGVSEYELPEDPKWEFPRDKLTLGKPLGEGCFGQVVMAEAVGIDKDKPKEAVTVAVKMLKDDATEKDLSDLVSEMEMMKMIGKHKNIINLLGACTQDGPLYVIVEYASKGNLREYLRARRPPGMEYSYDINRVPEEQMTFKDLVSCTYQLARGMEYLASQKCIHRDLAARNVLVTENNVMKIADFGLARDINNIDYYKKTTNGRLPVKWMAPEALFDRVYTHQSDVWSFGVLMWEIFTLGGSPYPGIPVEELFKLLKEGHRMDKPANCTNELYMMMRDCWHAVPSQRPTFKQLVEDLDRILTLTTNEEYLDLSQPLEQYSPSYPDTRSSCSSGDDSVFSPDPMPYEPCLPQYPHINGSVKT
Chain of Fibroblast growth factor receptor 1 (P11362 whole entry): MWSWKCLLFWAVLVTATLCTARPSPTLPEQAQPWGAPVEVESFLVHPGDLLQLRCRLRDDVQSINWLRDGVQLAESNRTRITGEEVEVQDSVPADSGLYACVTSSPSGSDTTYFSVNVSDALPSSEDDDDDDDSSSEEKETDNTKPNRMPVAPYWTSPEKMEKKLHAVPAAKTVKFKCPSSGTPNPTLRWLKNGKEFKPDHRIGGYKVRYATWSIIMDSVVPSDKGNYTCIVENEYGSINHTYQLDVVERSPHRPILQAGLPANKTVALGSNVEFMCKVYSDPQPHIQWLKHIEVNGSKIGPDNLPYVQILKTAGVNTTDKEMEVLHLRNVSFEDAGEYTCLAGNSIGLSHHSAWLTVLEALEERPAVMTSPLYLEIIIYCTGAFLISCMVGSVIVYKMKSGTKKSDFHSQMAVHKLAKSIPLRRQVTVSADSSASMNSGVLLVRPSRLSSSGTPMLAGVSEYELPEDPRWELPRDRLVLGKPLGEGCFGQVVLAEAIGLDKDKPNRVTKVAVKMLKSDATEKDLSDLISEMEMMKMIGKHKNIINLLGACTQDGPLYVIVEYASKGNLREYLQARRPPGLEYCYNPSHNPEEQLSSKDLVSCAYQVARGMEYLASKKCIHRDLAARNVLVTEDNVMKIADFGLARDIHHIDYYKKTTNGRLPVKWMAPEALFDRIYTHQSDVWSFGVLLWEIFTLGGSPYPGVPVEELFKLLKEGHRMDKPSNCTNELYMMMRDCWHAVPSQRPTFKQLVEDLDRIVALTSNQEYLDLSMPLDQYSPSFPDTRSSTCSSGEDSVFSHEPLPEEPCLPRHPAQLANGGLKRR
Chain of Fibroblast growth factor receptor 3 (P22607 whole entry): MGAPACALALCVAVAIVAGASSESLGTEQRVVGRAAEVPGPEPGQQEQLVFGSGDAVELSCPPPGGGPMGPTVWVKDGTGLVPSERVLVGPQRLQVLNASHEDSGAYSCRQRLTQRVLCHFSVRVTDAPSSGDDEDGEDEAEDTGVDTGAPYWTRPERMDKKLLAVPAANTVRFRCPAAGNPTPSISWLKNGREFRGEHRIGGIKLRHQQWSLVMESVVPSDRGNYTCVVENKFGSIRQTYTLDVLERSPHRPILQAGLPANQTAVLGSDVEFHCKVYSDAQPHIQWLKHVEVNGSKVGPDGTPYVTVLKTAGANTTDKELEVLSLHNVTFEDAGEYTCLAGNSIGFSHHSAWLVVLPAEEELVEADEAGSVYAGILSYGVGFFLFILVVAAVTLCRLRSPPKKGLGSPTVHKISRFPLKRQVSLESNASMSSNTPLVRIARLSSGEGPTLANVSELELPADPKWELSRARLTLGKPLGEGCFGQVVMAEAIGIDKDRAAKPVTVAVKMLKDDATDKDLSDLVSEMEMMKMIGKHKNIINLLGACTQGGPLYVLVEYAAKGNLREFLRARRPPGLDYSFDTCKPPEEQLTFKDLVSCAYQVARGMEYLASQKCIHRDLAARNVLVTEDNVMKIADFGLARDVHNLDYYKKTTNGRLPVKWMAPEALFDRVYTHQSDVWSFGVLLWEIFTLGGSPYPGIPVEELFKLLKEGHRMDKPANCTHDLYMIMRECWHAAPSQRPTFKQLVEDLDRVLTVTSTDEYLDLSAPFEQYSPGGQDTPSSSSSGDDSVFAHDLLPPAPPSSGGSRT

Cmax [2]: 1840 ng/mL
AUC(0-t) [3]: 14900 ng·h/mL
Tmax [4]: 30 min
MRT last [5]: 10.8 min
Vd [6]: 1.32 L/kg
MRT [7]: 190 min
AUC(0-t) [8]: 7920 ng·h/mL
IC50 (Huh-7 [9]): 12.6 nM
MRT [11]: 11.4 min
AUC(0-inf) [12]: 572 ng·h/mL
Tmax [14]: 4.8 min
IC50 [16]: 9.9 nM
IC50 [17]: 3.1 nM
IC50 [18]: 16 nM
AUC(0-inf) [19]: 28200 ng·h/mL
AUC(0-t) [20]: 28100 ng·h/mL
AUC(0-inf) [21]: 14900 ng·h/mL
C0 [22]: 3300 ng/mL
microsomal CLint [23]: 46.7 µL/min/mg
half-life [24]: 149 min
AUC(0-inf) [25]: 7950 ng·h/mL
half-life [26]: 193 min
IC50 (A549): > 10000 nM
IC50 (MV4-11): > 10000 nM
Tmax [27]: 15 min
AUC(0-inf) [28]: 1970 ng·h/mL
IC50 (SNU-16): 1.8 nM
IC50 (MCF7): > 10000 nM
half-life [29]: 81.6 min
clearance [30]: 58 mL/min/kg
Tmax [31]: 30 min
AUC(0-t) [32]: 570 ng·h/mL
MRT last [33]: 119 min
Structure (SMILES): C=CC(=O)N1CCC(c2cc3c(Oc4ccc(NC(=O)NC5CC5)c(Cl)c4)ccnc3cc2OC)CC1
Activity (Huh-7 [1]): 89.6%
IC50 [10]: 357 nM
Activity [13]: Active
Activity (Huh-7 [15]): Dose-Dependent Effect
IC50 (Hep 3B2): 52.6 nM
Activity (Huh-7 [34]): Active
